From patent US5364944A, “Substituted benzoylbenzene-, biphenyl- and 2-oxazole- alkanoic acid compounds” (American Home Products Corporation, priority 1993, dated 1994)
Where a name gives a salt, the structure may show the parent alone.

Assays:
LTB4 = assay: Reverse passive Arthus pleurisy assay, inflammatory mediator release: LTB4; format: in vivo, rat (male Lewis); conditions: for % Inh LTB4: 10 mg/kg p.o., standard drugs; for % Inhibition of LTB4 Synthesis: 25 mg/kg p.o., 3 hours before challenge
Description: The compounds of the invention are further tested in the reverse passive Arthus pleurisy assay to evaluate their effectiveness in inflammatory mediator release and/or the fluid and cellular phases of an inflammatory response.
(§1) This assay is carried out as follows:
A reverse passive Arthus reaction is induced in the pleural cavity of male Lewis rats (150-200 g; fasted overnight prior to use) by the intravenous administration of bovine serum albumin (BSA; 4 mg/0.2 ml) followed 30 minutes later by the injection of rabbit anti-BSA (1 mg/0.2 ml; lyophilized IgG fraction; Organon Teknika, West Chester, Pa.) into the right pleural space under halothane anesthesia. […] Animals are sacrificed at either the time of peak eicosanoid production (i.e. 5 minutes after anti-BSA for immunoreactive TxB2 10 minutes for immunoreactive LTB4, 20 minutes for immunoreactive LTC4) or at the time of peak neutrophil infiltration (4 hours after anti-BSA) by CO2 inhalation. The pleural cavity is then exposed, the fluid exudate removed by gentle vacuum aspiration and the volume of exudate is recorded. For the determination of cellular infiltration, the pleural cavity is rinsed with 3 ml of 0.1% EDTA in sterile saline, and the recovered wash is pooled with the exudate. Cell number is determined on a model ZBI Coulter counter. For determination of eicosanoid production, undiluted pleural exudate is microfuged and the supernatant is extracted with ethanol (8-10 times volume). Extracts are either stored at -20° C., or are evaporated to dryness under a stream of N2 and reconstituted in radioimmunoassay (RIA) buffer.
Eicosanoids are quantitated by RIA according to the procedure specified by the RIA kit manufacturer (Advanced Magnetics, Cambridge, Mass.). Briefly, 100 μl of ^3 H-labeled eicosanoid and 100 μl of specific antibody are sequentially added to 100 μl of extracted pleural exudate in BGG -phosphate buffer which contains 0.01 M phosphate, 0.1% bovine gamma globulin and 0.1% sodium azide at pH 7.0. Antibody-bound eicosanoid is separated from unbound eicosanoid by the addition of 750 μl of dextran (0.4%)-coated charcoal (0.4% Norit A) containing 0.1% sodium azide. The mixture is centrifuged at 2000 RPM at 5° C. for 15 minutes to pellet the charcoal and adsorbed unbound eicosanoid. Antibody-bound labeled eicosanoid is quantitated by counting in a liquid scintillation counter, and is correlated to concentration by a standard curve.
Inflammatory cells are expressed as 10^6 cells/ml, pleural exudate is expressed as ml of fluid, and the amount of eicosanoids in the pleural cavity is expressed as ng/ml of exudate. Mean ±S.E.M. is determined for each group. Percent inhibition (% I) of cell number, exudate volume and eicosanoid production is calculated for vehicle-treated control groups, and the responses in drug-treated rats are then expressed as the mean % I of the control. […] Exp. Ther., 96, 99-113 (1949).

[1] = target: T1, LTD4-induced contractions of isolated guinea pig trachea (Cavia porcellus, UniProt Q2NNR5); assay: In vitro isolated guinea pig trachea assay, LTD4 antagonist activity; set-up: species or system guinea pig (male Hartley)
T1 construct: isolated guinea pig trachea; from tissue; host or cells: tracheal rings of male Hartley guinea pigs
T1 sequence (Q2NNR5 1-340): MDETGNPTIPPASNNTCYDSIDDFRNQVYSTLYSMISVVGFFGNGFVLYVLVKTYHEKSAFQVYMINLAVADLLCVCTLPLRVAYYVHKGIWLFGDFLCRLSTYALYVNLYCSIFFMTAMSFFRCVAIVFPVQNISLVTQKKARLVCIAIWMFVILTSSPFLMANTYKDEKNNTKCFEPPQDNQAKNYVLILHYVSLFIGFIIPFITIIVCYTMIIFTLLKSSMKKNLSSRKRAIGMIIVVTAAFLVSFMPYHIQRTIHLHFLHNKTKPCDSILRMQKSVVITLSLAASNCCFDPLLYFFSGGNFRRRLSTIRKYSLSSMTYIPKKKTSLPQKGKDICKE
Description: The LTD4 antagonist activity of the compounds of the invention is assessed in the in vitro isolated guinea pig trachea assay. This assay is carried out as follows: Male Hartley guinea pigs (350-400 g) are euthanized by a blow to the head, the neck is opened and the trachea removed. The trachea is maintained in aerated physiological salt solution, cleared of connective tissue and fat and cut into rings approximately 2 mm in width (usually containing two cartilaginous segments per ring). Two pieces of silk suture are then passed through the lumen of the tracheal ting and are tied around the cartilage, one on each side of the trachealis muscle. The tracheal ring is suspended between a glass hook and a force displacement transducer in a 10 ml organ bath for measurement of isometric tension. […] The tracheal rings are maintained at 2 g resting tension and equilibrated for 45 minutes (with frequent washing and readjustment of resting tension). The tracheal […] contracted by the addition of carbachol (3×10^-6 M), to determine tissue responsiveness and establish a reference contraction. On attainment of a stable level of contraction (approximately 30 minutes), the tissues are washed several times until baseline tension has been restored and the re-equilibrated for 30 minutes. The tissues are then incubated for 45 minutes with a test antiagonist (either 1×10^-6 M or 1×10^-5 M) or 10 μl of an appropriate solvent control (control, nontreated). One tissue in each group serves as the control. Twenty minutes prior to the construction of the LTD4 cumulative concentration-response curve, L-[…]×10^-2 M final bath concentration) is added to inhibit bioconversion of LTD4 to LTE4. Only one LTD4 concentration-response curve is constructed in each tissue. All responses to LTD4 in an individual tissue are measured as a percentage of the reference contraction of that tissue to carbachol. LTD4 antagonist activity is determined by comparison of the concentration response curves of LTD4 in the presence and absence of antagonist. Assessment of the relative rightward shift of the antagonist treated curve relative to the solvent (control) treated tissue is calculated as a concentration ratio (Eq. A) and used in subsequent calculations to derive an antagonist pKB value (Eqs. B and C). […] If a compound is found to be active and/or depress the maximal response to LTD4, then a range of concentrations of the test compound should be used generating multiple concentration ratios which would then be used to perform a Schild analysis, and determination of a pA2 value where appropriate.

[2] = test system: 5-lipoxygenase in human whole blood; assay: Inhibition of 5-lipoxygenase in human whole blood (LTB4); format: cell-based
Description: The assay of this Example measures the ability of the compounds tested to inhibit 5-lipoxygenase in human whole blood.
as §1
Blood is obtained in 50-100 ml quantities from male donors. White blood cell counts and differentials are made. Two ml of blood are placed in a 15 ml polypropylene test tube. Compounds are solubilized in dimethylsulfoxide and diluted 1:10 in 10% bovine serum albumin in phosphate buffered saline, pH 7.4 resulting in a final dimethylsulfoxide concentration of 0.1% in the blood. Then, compounds are added to the blood in a shaking water bath at 37° C. for 10 minutes prior to the addition of 30 μM calcium ionophore (A23187; Sigma). After ionophore administration, whole blood samples are mixed and incubated for 20 minutes at […] in a shaking water bath. Incubation is terminated by placing samples in an ice bath and immediately adding ethylene glycol-bis-(β-aminoethyl ether)-N,N,N',N'-tetraacetic acid (10 mM). Samples are mixed and centrifuged at 1200×g for 15 minutes at 4° C. Preparation of samples for evaluation by RIA or ELISA is carried out by the following protocol. Plasma is removed from sample tubes, placed in 15 ml polypropylene test tubes containing 8 ml methanol, and then vortexed to precipitate protein. Samples are stored at -70° C. overnight. The next day, samples are centrifuged at 200×g for 15 minutes at 4° C. to pellet the precipitate. Samples are dried in a Savant speed vac concentrator, reconstituted to original volume with ice cold RIA or ELISA buffer, and stored at -70° C. until assayed. The assay for eicosanoids (LTB4, TxB2, and PGE2) is performed as described by the manufacturer of the [^3 H]-RIA kit or ELISA kit (LTB4 -Amersham, TxB2 and PGE2 - Caymen Chemical).
The total eicosanoid level in 2 ml of blood is calculated and reported as ng/10^6 neutrophils. […] Drug effects are expressed as percent change from control values.
Compounds tested in vitro are solubilized in dimethylsulfoxide and diluted 1:10 in 10% bovine serum albumin in phosphate buffer saline resulting in a final dimethylsulfoxide concentration of 0.1% in the blood.

[3] = reference leukotriene antagonists

| SMILES | Kb ([1]; 1 × 10^-5 M) | % Inhibition of LTB4 ([2]; at 10 μM) | further results |
| --- | --- | --- | --- |
| O=C(O)Cc1ccccc1Nc1c(Cl)cccc1Cl [Diclofenac, reference compound] |  |  | % Inh LTB4 (LTB4): 0% |
| O=C(O)CCc1nc(-c2ccc(OCc3ccc4ccccc4n3)cc2)c(-c2ccccc2)o1 [Example 5, 5-Phenyl-4-[4-(2-Quinolinylmethoxy)phenyl]-2-oxazole propanoic acid] | 316 nM |  | % Inhibition of LTB4 ([2]; at 25 μM): 11% |
| CN(O)C(=O)Cc1ccc(-c2ccc(OCc3ccc4ccccc4n3)cc2)c(F)c1 [Example 8, N-Hydroxy-N-methyl-2-fluoro-4'-(2-quinolinylmethoxy)-[1,1'-biphenyl]-4-acetamide] |  |  | IC50 [2]: 530 nM; % Inhibition of LTB4 ([2]; at 25 μM): 94% |
| O=C(O)CCc1nc(-c2ccc(OCc3ccc4ccccc4n3)cc2)c(-c2ccccc2)o1 [Example 10] |  |  | % Inhibition of LTB4 Synthesis (LTB4): 65% |
| CC(C(=O)N(C)O)c1ccc(-c2ccc(OCc3nc4ccccc4s3)cc2)cc1 (stereo not drawn) [Example 16, N-Hydroxy-N,α-dimethyl-4'-(2-benzothiazolylmethoxy)[1,1'-biphenyl]-4-acetamide] |  |  | % Inhibition of LTB4 Synthesis (LTB4): 46%; IC50 [2]: 8300 nM; % Inhibition of LTB4 ([2]; at 25 μM): 72% |
| CN(O)C(=O)Cc1ccc(-c2ccc(OCc3csc(-c4ccccc4)n3)cc2)cc1 [Example 19, N-Hydroxy-N-methyl-4'-[(2-phenylthiazol-4-yl)methoxy][1,1'-biphenyl]-4-acetamide, sodium salt, sesquihydrate] |  |  | % Inhibition of LTB4 ([2]; at 25 μM, sodium salt, sesquihydrate): 83% |
| CN(O)C(=O)Cc1ccc(-c2ccc(OCc3csc(-c4ccccc4)n3)cc2)c(F)c1 [Example 27] |  |  | IC50 [2]: 1300 nM; % Inhibition of LTB4 ([2]; at 25 μM): 69% |
| CC(=O)N(O)C(C)c1ccc(-c2ccc(OCc3nc4ccccc4o3)cc2)cc1 (stereo not shown) [Example 36, N-{1-[4'-(Benzoxazol-2-ylmethoxy)-biphenyl-4-yl]ethyl}-N-hydroxy-acetamide] |  | 77% |  |
| CC(c1ccc(-c2ccc(OCc3csc(-c4ccccc4)n3)cc2)cc1)N(O)C(N)=O (stereo not shown) [Example 38, 1-{1-[4'-(2-Phenylthiazol-4-ylmethoxy)-biphenyl4-yl]-ethyl}-1-hydroxy-urea] |  | 46% |  |
| CC(=O)N(O)C(C)c1ccc(-c2ccc(OCc3csc(-c4ccccc4)n3)cc2)cc1 (stereo not shown) [Example 39, N-{1-[4'-(2-Phenylthiazol-4-ylmethoxy)-biphenyl-4-yl]-ethyl}-N-hydroxy-acetamide] |  | 43% |  |
| CC(c1ccc(-c2ccc(OCc3nc4ccccc4s3)cc2)c(F)c1)N(O)C(N)=O (stereo not shown) [Example 40, 1-{1-[4'-(Benzothiazol-2-ylmethoxy)-2-fluoro(1,1'-biphenyl)-4-yl]ethyl}-1-hydroxy-urea] |  | 47% |  |
| CCCc1c(OCCCCc2nnn[nH]2)ccc(C(C)=O)c1O [Ly-171,883, reference compound] |  |  | Kb [1, 3]: 36.3 nM |
| O=S(=O)(Nc1cccc(OCc2ccc3ccccc3n2)c1)C(F)(F)F [Wy-48,252, reference compound] |  |  | Kb [1, 3]: 126 nM |
| CC(C(=O)O)c1cccc(C(=O)c2ccccc2)c1 (stereo not shown) [ketoprofen, reference compound] |  |  | % Inh LTB4 (LTB4): 35% |

The next lines start with results.

| Kb ([1]; 1 × 10^-5 M) | SMILES | % Inhibition of LTB4 ([2]; at 10 μM) | further results |
| --- | --- | --- | --- |
| > 7940 nM | O=C(Cc1ccc(-c2ccc(OCc3nc4ccccc4s3)cc2)cc1)NO [Example 14, N-Hydroxy-4'-(2-benzothiazolylmethoxy)[1,1'-biphenyl]-4-acetamide] |  | % Inhibition of LTB4 ([2]; at 25 μM): 5% |
| > 7940 nM | CN(O)C(=O)C(Cc1csc(-c2ccccc2)n1)c1ccc(-c2ccc(OCc3csc(-c4ccccc4)n3)cc2)cc1 (stereo not shown) [Example 25] |  |  |
| > 3980 nM | CN(O)C(=O)Cc1ccc(-c2ccc(OCc3ccccn3)cc2)c(F)c1 [Example 28, 2-Fluoro-N-hyroxy-N-methyl-4'-(2-pyridinylmethoxy)[1,1'-biphenyl]-4-acetamide] | 66% | IC50 [2]: 2300 nM |
| 631 nM | CN(O)C(=O)Cc1ccc(-c2ccc(OCc3nc4ccccc4n3C)cc2)c(F)c1 [Example 29, 2-[2-Fluoro-4'-(1-methyl-1H-benzimidazol-2-ylmethoxy)biphenyl-4-yl]-N-hydroxy-N-methyl-4-acetamide] | 74% | IC50 [2]: 700 nM |
| > 10000 nM | CC(=O)N(O)C(C)c1ccc(-c2ccc(OCc3nc4ccccc4s3)cc2)cc1 (stereo not shown) [Example 34, N-{1-[4'-(Benzothiazol-2-ylmethoxy)-biphenyl4-yl]-ethyl}-N-hydroxy-acetamide] | 36% |  |
| > 5010 nM | CC(c1ccc(-c2ccc(OCc3nc4ccccc4o3)cc2)cc1)N(O)C(N)=O (stereo not shown) [Example 35] | 51% |  |
| > 3160 nM | CC(=O)N(O)C(C)c1ccc(-c2ccc(OCc3nc4ccccc4n3C)cc2)cc1 (stereo not shown) [Example 37] | 61% |  |
